≈ marks a conversion by molar mass, not a printed value.
Assays:
[1] = Thermodynamic solubility in FeSSIF; type: ADME; conditions: read-out: Therm_solubility
[2] = Tmax in dog at 10 mg/kg, po measured for 24 hrs by LC-MS/MS analysis; type: ADME, organism-based, Canis lupus familiaris; conditions: in vivo
[3] = target: Fibroblast growth factor receptor 1 (Homo sapiens, UniProt P11362); experiment: Inhibition of human FGFR1 by KINOMEscan analysis
[4] = target: T1, Fibroblast growth factor receptor 3 (Homo sapiens, UniProt P22607); experiment: Inhibition of wild-type FGFR3 (unknown origin) by mobility shift assay
[5] = target: Vascular endothelial growth factor receptor 1 (Homo sapiens, UniProt P17948); experiment: Inhibition of human FLT1 by KINOMEscan analysis
[6] = Stability in rat hepatocytes assessed as half life at 1 uM incubated upto 180 mins by LC-MS/MS analysis; type: ADME, cell-based, Hepatocyte
[7] = target: Vascular endothelial growth factor receptor 2 (Homo sapiens, UniProt P35968); experiment: Inhibition of human VEGFR2 at 100 nM by KINOMEscan analysis relative to control
[8] = target: Fibroblast growth factor receptor 3 (Homo sapiens, UniProt P22607, V555L); experiment: Inhibition of FGFR3 V555L mutant (unknown origin) by mobility shift assay
[9] = target: Fibroblast growth factor receptor 3 (Homo sapiens, UniProt P22607, K650M); experiment: Inhibition of FGFR3 K650M mutant (unknown origin) by mobility shift assay
[10] = target: Fibroblast growth factor receptor 4 (Homo sapiens, UniProt P22455); experiment: Inhibition of human FGFR4 by KINOMEscan analysis
[11] = Half life in dog at 10 mg/kg, po measured for 24 hrs by LC-MS/MS analysis; type: ADME, organism-based, Canis lupus familiaris; conditions: in vivo
[12] = Stability in human hepatocytes assessed as intrinsic clearance at 1 uM incubated upto 180 mins by LC-MS/MS analysis; type: ADME, cell-based, Hepatocyte; conditions: read-out: CLH
[13] = AUC (last) in dog at 1 mg/kg, iv measured for 24 hrs by LC-MS/MS analysis; type: ADME, organism-based, Canis lupus familiaris; conditions: in vivo
[14] = target: T1, Fibroblast growth factor receptor 3; experiment: Inhibition of wild-type FGFR3 (unknown origin) by NanoBRET assay
[15] = Tmax in Sprague-Dawley rat at 10 mg/kg, po measured for 24 hrs by LC-MS/MS analysis; type: ADME, organism-based; conditions: in vivo

T1 sequence (P22607 whole entry): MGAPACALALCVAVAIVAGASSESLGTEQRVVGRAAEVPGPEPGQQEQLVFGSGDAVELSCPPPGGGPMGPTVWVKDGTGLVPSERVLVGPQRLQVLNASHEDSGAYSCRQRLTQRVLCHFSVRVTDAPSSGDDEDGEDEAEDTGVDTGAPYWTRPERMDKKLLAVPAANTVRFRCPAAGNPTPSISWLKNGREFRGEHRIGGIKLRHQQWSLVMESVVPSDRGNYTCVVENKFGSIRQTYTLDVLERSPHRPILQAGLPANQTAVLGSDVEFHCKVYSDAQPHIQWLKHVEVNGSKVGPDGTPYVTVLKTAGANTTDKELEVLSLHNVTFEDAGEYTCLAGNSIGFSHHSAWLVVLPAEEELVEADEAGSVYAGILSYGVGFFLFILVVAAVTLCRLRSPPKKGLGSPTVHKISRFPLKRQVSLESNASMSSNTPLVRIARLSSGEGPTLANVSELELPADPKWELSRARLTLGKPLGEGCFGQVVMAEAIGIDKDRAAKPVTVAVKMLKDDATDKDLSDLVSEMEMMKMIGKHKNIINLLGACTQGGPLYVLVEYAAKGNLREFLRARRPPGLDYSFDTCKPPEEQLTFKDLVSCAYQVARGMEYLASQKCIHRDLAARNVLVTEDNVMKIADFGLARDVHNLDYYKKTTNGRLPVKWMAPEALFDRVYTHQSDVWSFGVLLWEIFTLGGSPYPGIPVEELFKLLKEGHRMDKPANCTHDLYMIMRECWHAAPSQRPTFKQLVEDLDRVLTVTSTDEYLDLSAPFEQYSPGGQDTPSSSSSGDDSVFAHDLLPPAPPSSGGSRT
Sequence of Fibroblast growth factor receptor 3 (Homo sapiens, UniProt P22607, V555L) (P22607 23-806 V555L limits assumed): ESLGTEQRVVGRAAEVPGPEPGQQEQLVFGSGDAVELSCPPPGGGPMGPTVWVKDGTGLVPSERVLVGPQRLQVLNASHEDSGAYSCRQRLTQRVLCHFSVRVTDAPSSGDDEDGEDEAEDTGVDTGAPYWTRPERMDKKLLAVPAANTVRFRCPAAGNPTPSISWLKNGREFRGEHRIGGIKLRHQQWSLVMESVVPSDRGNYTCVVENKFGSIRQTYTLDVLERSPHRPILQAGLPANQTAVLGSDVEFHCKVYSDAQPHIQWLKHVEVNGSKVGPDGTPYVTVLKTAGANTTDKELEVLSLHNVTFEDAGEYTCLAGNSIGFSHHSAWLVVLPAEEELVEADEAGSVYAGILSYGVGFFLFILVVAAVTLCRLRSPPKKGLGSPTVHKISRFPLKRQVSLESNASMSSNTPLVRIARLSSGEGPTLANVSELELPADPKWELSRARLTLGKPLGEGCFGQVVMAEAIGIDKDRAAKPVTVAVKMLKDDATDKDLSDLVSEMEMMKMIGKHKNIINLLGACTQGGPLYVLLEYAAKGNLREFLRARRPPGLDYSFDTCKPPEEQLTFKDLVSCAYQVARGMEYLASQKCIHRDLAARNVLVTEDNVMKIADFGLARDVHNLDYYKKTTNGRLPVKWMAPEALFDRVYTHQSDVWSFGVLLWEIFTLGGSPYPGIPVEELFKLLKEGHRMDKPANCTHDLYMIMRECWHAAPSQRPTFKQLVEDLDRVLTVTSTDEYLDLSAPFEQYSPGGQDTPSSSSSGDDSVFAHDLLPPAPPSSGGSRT
Sequence of Vascular endothelial growth factor receptor 1 (P17948 whole entry): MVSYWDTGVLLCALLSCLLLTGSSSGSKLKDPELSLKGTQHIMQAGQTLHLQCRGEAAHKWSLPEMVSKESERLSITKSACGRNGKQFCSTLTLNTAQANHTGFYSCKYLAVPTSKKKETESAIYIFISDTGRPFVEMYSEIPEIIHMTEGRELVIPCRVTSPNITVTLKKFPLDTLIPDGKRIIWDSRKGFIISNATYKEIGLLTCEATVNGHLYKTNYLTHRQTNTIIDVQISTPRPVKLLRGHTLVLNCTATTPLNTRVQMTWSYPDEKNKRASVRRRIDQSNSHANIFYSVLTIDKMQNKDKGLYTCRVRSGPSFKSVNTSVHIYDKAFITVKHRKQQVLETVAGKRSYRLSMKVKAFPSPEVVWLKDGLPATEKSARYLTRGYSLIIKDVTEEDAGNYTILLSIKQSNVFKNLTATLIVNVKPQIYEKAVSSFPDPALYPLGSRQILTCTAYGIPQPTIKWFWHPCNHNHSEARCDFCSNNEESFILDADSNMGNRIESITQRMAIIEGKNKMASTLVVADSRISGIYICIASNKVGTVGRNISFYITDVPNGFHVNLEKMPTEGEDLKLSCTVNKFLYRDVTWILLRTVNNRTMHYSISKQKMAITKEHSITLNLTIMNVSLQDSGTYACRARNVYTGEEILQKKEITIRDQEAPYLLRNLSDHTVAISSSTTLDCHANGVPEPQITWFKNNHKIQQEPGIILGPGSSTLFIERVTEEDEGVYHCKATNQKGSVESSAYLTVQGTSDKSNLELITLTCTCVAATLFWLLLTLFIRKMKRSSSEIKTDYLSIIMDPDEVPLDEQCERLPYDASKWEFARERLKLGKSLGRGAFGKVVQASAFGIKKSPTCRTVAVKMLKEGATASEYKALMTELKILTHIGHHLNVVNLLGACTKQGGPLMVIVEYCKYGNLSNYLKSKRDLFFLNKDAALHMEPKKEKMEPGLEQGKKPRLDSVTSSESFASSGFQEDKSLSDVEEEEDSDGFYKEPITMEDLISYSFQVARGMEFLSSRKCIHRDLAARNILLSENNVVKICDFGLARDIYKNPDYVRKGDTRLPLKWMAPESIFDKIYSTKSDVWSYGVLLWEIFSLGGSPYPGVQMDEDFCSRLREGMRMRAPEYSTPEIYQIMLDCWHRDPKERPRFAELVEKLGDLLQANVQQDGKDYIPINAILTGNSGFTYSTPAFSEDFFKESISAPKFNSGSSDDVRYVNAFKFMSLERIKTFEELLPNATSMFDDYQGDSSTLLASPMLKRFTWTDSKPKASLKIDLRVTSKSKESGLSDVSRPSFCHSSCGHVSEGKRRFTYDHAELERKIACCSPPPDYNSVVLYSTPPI
Sequence of Fibroblast growth factor receptor 4 (P22455 whole entry): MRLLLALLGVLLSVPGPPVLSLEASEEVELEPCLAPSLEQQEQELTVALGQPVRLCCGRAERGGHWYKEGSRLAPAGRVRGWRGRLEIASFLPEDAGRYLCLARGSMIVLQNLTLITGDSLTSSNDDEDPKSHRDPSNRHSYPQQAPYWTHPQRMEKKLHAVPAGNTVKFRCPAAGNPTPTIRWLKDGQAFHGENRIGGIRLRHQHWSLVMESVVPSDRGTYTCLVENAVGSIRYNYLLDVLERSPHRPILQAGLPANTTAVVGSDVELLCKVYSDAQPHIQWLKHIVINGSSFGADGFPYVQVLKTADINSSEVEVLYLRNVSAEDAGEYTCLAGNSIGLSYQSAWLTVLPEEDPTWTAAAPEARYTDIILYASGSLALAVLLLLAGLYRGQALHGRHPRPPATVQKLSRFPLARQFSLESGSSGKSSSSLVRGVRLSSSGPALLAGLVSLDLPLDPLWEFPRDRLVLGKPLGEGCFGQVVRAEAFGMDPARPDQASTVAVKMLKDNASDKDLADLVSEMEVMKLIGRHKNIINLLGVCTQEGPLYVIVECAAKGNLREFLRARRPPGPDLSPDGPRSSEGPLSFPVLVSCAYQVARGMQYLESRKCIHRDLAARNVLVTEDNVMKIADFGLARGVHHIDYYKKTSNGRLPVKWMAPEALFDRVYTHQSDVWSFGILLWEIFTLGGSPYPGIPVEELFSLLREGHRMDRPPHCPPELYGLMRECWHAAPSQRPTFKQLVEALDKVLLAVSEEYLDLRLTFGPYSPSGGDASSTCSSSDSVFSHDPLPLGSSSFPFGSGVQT
Sequence of Fibroblast growth factor receptor 1 (P11362 whole entry): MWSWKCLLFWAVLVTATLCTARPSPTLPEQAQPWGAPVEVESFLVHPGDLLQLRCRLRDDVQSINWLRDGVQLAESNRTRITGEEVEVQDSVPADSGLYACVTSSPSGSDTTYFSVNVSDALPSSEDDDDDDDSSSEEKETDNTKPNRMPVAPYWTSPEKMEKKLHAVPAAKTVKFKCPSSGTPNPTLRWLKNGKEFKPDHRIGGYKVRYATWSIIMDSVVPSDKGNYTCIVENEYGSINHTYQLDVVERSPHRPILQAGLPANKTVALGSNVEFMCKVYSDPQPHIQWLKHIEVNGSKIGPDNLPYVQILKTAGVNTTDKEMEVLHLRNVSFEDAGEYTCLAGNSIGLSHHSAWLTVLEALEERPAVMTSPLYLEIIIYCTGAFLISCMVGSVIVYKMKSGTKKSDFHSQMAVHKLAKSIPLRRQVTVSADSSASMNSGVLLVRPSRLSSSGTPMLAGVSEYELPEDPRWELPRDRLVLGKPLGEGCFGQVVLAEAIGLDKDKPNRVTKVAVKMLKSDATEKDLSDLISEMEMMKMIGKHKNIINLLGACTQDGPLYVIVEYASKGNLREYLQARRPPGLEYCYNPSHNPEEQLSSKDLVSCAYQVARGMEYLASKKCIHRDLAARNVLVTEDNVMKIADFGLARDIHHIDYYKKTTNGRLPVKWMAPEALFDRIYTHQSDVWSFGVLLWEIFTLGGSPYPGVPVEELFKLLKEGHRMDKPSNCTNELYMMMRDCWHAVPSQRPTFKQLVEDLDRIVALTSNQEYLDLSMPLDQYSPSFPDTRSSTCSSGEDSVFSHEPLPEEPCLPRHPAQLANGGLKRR
Sequence of Fibroblast growth factor receptor 3 (Homo sapiens, UniProt P22607, K650M) (P22607 23-806 K650M limits assumed): as the sequence (P22607 23-806 V555L limits assumed) above, with L533V, K628M counted along it

solubility thermodynamic [1]: 514 µM (≈ 288 µg/mL) | Tmax [2]: 6 h | IC50 [3]: 108 nM | IC50 [4]: 1.6 nM | IC50 [5]: 201 nM | half-life at 1 µM [6]: 1.23 h | inhibition [7]: < 90% | IC50 [8]: 1.5 nM | IC50 [9]: 2.3 nM | IC50 [10]: 11 nM | half-life [11]: 24.8 h | CLint scaled at 1 µM [12]: 14 mL/min/kg | AUC(0-t) at 24 h [13]: 5930 ng·h/mL | IC50 [14]: 21 nM | Tmax [15]: 4 h
Compound: C[C@@H](Oc1ccc2[nH]nc(-c3ccc(N4CC5(C4)CN(S(C)(=O)=O)C5)nc3)c2c1)c1c(Cl)cncc1Cl

— ChEMBL document CHEMBL5579895, “Discovery of TYRA-300: First Oral Selective FGFR3 Inhibitor for the Treatment of Urothelial Cancers and Achondroplasia” (J Med Chem, 2024)
